Measured values from patent US20220402869A1, “TRANSCRIPTIONAL ENHANCED ASSOCIATE DOMAIN (TEAD) TRANSCRIPTION FACTOR INHIBITORS AND USES THEREOF” (Dana-Farber Cancer Institute, Inc., priority 2018, published 2022).

The compounds below were run on TEAD transcriptional activity (assay: Inhibition of TEAD-driven transcription (8×GTIIC-luciferase reporter assay)). Conditions: 40 μM at 24 hour treatment.
Assay type: cell-based
Method: The compounds were tested for their ability to inhibit TEAD-driven transcription.
8×GTIIC-luciferase plasmid, containing 8 TEAD binding sites (ACATTCCA), was obtained from Addgene (Addgene #34615). MDA-MB-231 cells were transfected with 8×GTIIC-luciferase and stable clone was obtained using neomycin selection. The TEAD transcriptional activity was monitored by assessing the luciferase activity using luciferase assay system (Promega). Each data point represents mean±standard deviation.
`O=C(CCl)Nc1ccccc1Nc1cccc(C(F)(F)F)c1` [Compound I-31, 2-chloro-N-(2-((3-(trifluoromethyl)phenyl)amino)phenyl)acetamide] showed an inhibition at 40 µM of 90%. `C=CC(=O)N1CCC[C@@H](Oc2cccc(C(F)(F)F)c2)C1` [Compound I-21] was tested, and the inhibition at 40 µM was 70%. In the case of `O=C(CCl)N1CCC[C@H](Nc2cccc(C(F)(F)F)c2)C1` [Compound I-14, (S)-2-chloro-1-(3-((3-(trifluoromethyl)phenyl)amino)piperidin-1-yl)ethan-1-one], the inhibition at 40 µM is reported as 70%. `C=CC(=O)N1CCC[C@H](Nc2cccc(C(F)(F)F)c2)C1` [Compound I-15, (S)-1-(3-((3-(trifluoromethyl)phenyl)amino)piperidin-1-yl)prop-2-en-1-one] showed an inhibition at 40 µM of 70%. With `C=CC(=O)N1CC[C@H](N(C)c2cccc(C(F)(F)F)c2)C1` [Compound I-48, (S)-1-(3-(methyl(3-(trifluoromethyl)phenyl)amino)pyrrolidin-1-yl)prop-2-en-1-one] the inhibition at 40 µM was 50%. With `O=C(CCl)N1CC(c2cccc(C(F)(F)F)c2)c2ccccc21` (stereo not shown) [Compound I-35, 2-chloro-1-(3-(3-(trifluoromethyl)phenyl)indolin-1-yl)ethan-1-one] the inhibition at 40 µM was 70%. `C=CC(=O)N1CC[C@H](Nc2cccc(C(F)(F)F)c2N)C1` [Compound I-65, (S)-1-(3-((2-amino-3-(trifluoromethyl)phenyl)amino)pyrrolidin-1-yl)prop-2-en-1-one] showed an inhibition at 40 µM of 90%. `C=CC(=O)N1CC[C@H](Nc2cc(Cl)cc(C(F)(F)F)c2)C1` [Compound I-52, (S)-1-(3-((3-chloro-5-(trifluoromethyl)phenyl)amino)pyrrolidin-1-yl)prop-2-en-1-one] showed an inhibition at 40 µM of 70%. `CN(C)C/C=C/C(=O)N1CC[C@H](Nc2cccc(C(F)(F)F)c2)C1` [Compound I-47, (S,E)-4-(dimethylamino)-1-(3-((3-(trifluoromethyl)phenyl)amino)pyrrolidin-1-yl)but-2-en-1-one] gave an inhibition at 40 µM of 50%. Work on `C=CC(=O)N1CC[C@H](Nc2cc(C(F)(F)F)ccc2Cl)C1` [Compound I-51, (S)-1-(3-((2-chloro-5-(trifluoromethyl)phenyl)amino)pyrrolidin-1-yl)prop-2-en-1-one] yielded an inhibition at 40 µM of 90%. In the case of `C=CC(=O)N1CC[C@H](Nc2cccc(C(F)(F)F)c2C)C1` [Compound I-57, (S)-1-(3-((2-methyl-3-(trifluoromethyl)phenyl)amino)pyrrolidin-1-yl)prop-2-en-1-one], the inhibition at 40 µM is reported as 70%. Compound `C=CC(=O)N1C[C@@H](O)[C@H](Nc2cccc(C(F)(F)F)c2)C1` [Compound I-62, 1-((3R,4R)-3-hydroxy-4-((3-(trifluoromethyl)phenyl)amino)pyrrolidin-1-yl)prop-2-en-1-one] has an inhibition at 40 µM of 70%. `CCC(=O)N1CCC(Nc2cccc(C(F)(F)F)c2)C1` (stereo not shown) [Compound I-27, 1-(3-((3-(trifluoromethyl)phenyl)amino)pyrrolidin-1-yl)propan-1-one] showed an inhibition at 40 µM of 70%. `C=CC(=O)N1CCC(Nc2cccc(C(F)(F)F)c2)C1` (stereo not shown) [Compound I-11, 1-(3-((3-(trifluoromethyl)phenyl)amino)pyrrolidin-1-yl)prop-2-en-1-one] showed an inhibition at 40 µM of 90%. `C#Cc1cc(N[C@@H]2CCCN(C(=O)CCl)C2)cc(C(F)(F)F)c1` [Compound I-18] was tested, and the inhibition at 40 µM was 50%. For `C=CC(=O)N1CC[C@H](Nc2cc(C(F)(F)F)cc(C(F)(F)F)c2)C1` [Compound I-50, (S)-1-(3-((3,5-bis(trifluoromethyl)phenyl)amino)pyrrolidin-1-yl)prop-2-en-1-one], the inhibition at 40 µM was 90%. `C=CC(=O)N1CC[C@H](Nc2cncc(C(F)(F)F)c2)C1` [Compound I-61, (S)-1-(3-((5-(trifluoromethyl)pyridin-3-yl)amino)pyrrolidin-1-yl)prop-2-en-1-one] gave an inhibition at 40 µM of 50%. With `C=CC(=O)N1CC[C@H](Nc2cc(C(F)(F)F)ccc2OC)C1` [Compound I-56, (S)-1-(3-((2-methoxy-5-(trifluoromethyl)phenyl)amino)pyrrolidin-1-yl)prop-2-en-1-one] the inhibition at 40 µM was 50%. `C=CC(=O)N1CC[C@H](Nc2cccc(N3CCN(C)CC3)c2)C1` [Compound I-49, (S)-1-(3-((3-(4-methylpiperazin-1-yl)phenyl)amino)pyrrolidin-1-yl)prop-2-en-1-one] gave an inhibition at 40 µM of 50%. For `O=C(CCl)N1CCC[C@@H](Nc2cccc(C(F)(F)F)c2)C1` [Compound I-2, (R)-2-chloro-1-(3-((3-(trifluoromethyl)phenyl)amino)piperidin-1-yl)ethan-1-one], the inhibition at 40 µM was 50%. For `O=C(CCl)N1CCC(Nc2cccc(C(F)(F)F)c2)C1` (stereo not shown) [Compound I-10, 2-chloro-1-(3-((3-(trifluoromethyl)phenyl)amino)pyrrolidin-1-yl)ethan-1-one], the inhibition at 40 µM was 90%. Work on `O=C(CCl)N1CCCC(Nc2cccc(C(F)(F)F)c2)C1` (stereo not shown) [Compound I-19, 2-chloro-1-(3-((3-(trifluoromethyl)phenyl)amino)piperidin-1-yl)ethan-1-one] yielded an inhibition at 40 µM of 50%. In the case of `O=C(CCl)N1CCC[C@@H](Oc2cccc(C(F)(F)F)c2)C1` [Compound I-20, (R)-2-chloro-1-(3-(3-(trifluoromethyl)phenoxy)piperidin-1-yl)ethan-1-one], the inhibition at 40 µM is reported as 70%. `C=CC(=O)N1CC[C@H](Oc2cccc(C(F)(F)F)c2)C1` [Compound I-58, (S)-1-(3-(3-(trifluoromethyl)phenoxy)pyrrolidin-1-yl)prop-2-en-1-one] showed an inhibition at 40 µM of 70%. Compound `C=CC(=O)N1CCC[C@@H](Nc2cccc(C(F)(F)F)c2)C1` [Compound I-1, (R)-1-(3-((3-(trifluoromethyl)phenyl)amino)piperidin-1-yl)prop-2-en-1-one] has an inhibition at 40 µM of 50%.
